Consider 22 molecules from US20240067651A1 (Biohaven Therapeutics Ltd., priority 2019, published 2024).

The nature of series [1]: Stability in Simulated Intestinal Fluid (SIF). In kind it is in vitro ADME. More on the design: key: % parent compound remaining relative to 0-minute sample. A digest of the protocol: (§1)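 2 μg/mL final; SGF + pepsin pH 1.2 or SIF + pancreatin pH 6.8; 37° C, 150 rpm, 0–60 min. ACN quench with propranolol IS, LC-MS/MS. % parent vs 0 min; t1/2 from ln plot.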
A short description of series [2]: Caco-2 Permeability Assay. In kind it is in vitro ADME, human. Conditions: human. A digest of the protocol: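 Bidirectional transport at 37 °C for 90 min, 10 μM donor concentration, with or without Pgp inhibitor, across 21-day Caco-2 monolayers with TEER >600 […] in HEPES-buffered HBSS, pH 7.4. LC-MS/MS of donor and receiver samples gives Papp, B→A/A→B efflux ratio and mass recovery.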
For orientation: Caco-2 cells form a polarised layer with tight junctions and transporters.

A further series is described as follows: Plasma Stability. In kind it is in vitro ADME, human. A digest of the protocol: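 Parent compound quantified by LC-MS/MS after acetonitrile precipitation, reported as percent of control remaining (triplicate). Incubation: 1 hour, 37° C, fresh human plasma, compound at 1 μM.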
Series [3] in a line: Stability in Simulated Gastric Fluid (SGF). In kind it is in vitro ADME. More on the design: key: % parent compound remaining relative to 0-minute sample. An outline of the steps: as §1
The mark [4] stands for this setting: % remaining at 1 h, SIF with pancreatin pH 6.8, 2 μg/mL, 37° C.
[5] abbreviates: Caco-2, pH 7.4, donor 10 μM, 90 minutes, 37° C., direction not given.
Where [6] appears, read: % remaining at 1 h, human plasma, 1 μM, 37° C.
[7] abbreviates: % remaining at 1 h, SGF with pepsin pH 1.2, 2 μg/mL, 37° C.
Where [8] appears, read: % remaining at 1 h in simulated intestinal fluid, the 17th table.
[9] abbreviates: Caco-2, pH 7.4, Caco-2 monolayer, the 17th table.
Where [10] appears, read: % remaining at 1 h in human plasma, the 17th table.
Where [11] appears, read: % remaining at 1 h in simulated gastric fluid, the 17th table.
Setting [12] is: simulated intestinal fluid, at 1 h.
[13] abbreviates: Caco-2, pH 7.4, Caco-2 monolayer.
Setting [14] is: simulated gastric fluid, at 1 h.

A word on the Papp: it is a coefficient for how fast a substance crosses the barrier. As to `CC(C)OCCn1c(SCOC(=O)N(C)c2cccc(F)c2)nc(=O)c2[nH]ccc21` [Example 210, ({4-oxo-1-[2-(propan-2-yloxy)ethyl]-1H,4H,5H-pyrrolo[3,2-d]pyrimidin-2-yl}sulfanyl)methyl N-(3-fluorophenyl)-N-methylcarbamate], the SIF in series [1] (setting [4]) is listed as 97% remaining. The Papp at 90 min, 10 µM in series [2] (setting [5]) is 18.3 ×10⁻⁶ cm/s. The “human Plasma stability” value in the series “Plasma Stability” (setting [6]) turned out to be 97% remaining. Further, in series [3] (setting [7]), the SGF is 100% remaining.

Regarding `CC(C)OCCn1c(SCOC(=O)N(C)c2ccc(F)cc2)nc(=O)c2[nH]ccc21` [Example 211, ({4-oxo-1-[2-(propan-2-yloxy)ethyl]-1H,4H,5H-pyrrolo[3,2-d]pyrimidin-2-yl}sulfanyl)methyl N-(4-fluorophenyl)-N-methylcarbamate], the SIF in series [1] (setting [4]) is on record as 96% remaining. In series [2] (setting [5]), the Papp at 90 min, 10 µM stood at 20 ×10⁻⁶ cm/s. Moreover, in the series “Plasma Stability” (setting [6]), the “human Plasma stability” value turned out to be 99% remaining. Also, in series [3] (setting [7]), the SGF is recorded as 100% remaining.

In the case of `CC(C)OCCn1c(SC(C)OC(=O)N(C)c2ncccc2COC(=O)CN(C)C(=O)OC(C)(C)C)nc(=O)c2[nH]ccc21` (stereo not shown) [Example 212, (tert-Butoxycarbonyl-methyl-amino)-acetic acid 2-({1-[1-(2-isopropoxy-ethyl)-4-oxo-4,5-dihydro-1H-pyrrolo[3,2-d]pyrimidin-2-ylsulfanyl]-ethoxycarbonyl}-methyl-amino)-pyridin-3-ylmethyl ester], the SIF in series [1] (setting [4]) is listed as 97%. The molecule also yielded a Papp at 90 min, 10 µM in series [2] (setting [5]) of 0.87 ×10⁻⁶ cm/s. Moreover, the “human Plasma stability” value in “Plasma Stability” (setting [6]) is listed as 97%. The SGF in series [3] (setting [7]) is listed as 89%.

With `CCCCCCOC(=O)OCn1ccc2c1c(=O)nc(S)n2CCOC(C)C` [Example 213], the SIF in series [1] (setting [8]) is on record as 1% remaining. Besides, the Papp at 90 min, 10 µM in series [2] (setting [9]) is 3.03 ×10⁻⁶ cm/s. Besides, in “Plasma Stability” (setting [10]), the “human Plasma stability” value amounted to 44% remaining. In series [3] (setting [11]), the SGF is 76% remaining.

Regarding `CCCCCCOC(=O)OCSc1nc(=O)c2c(ccn2COC(=O)OCCCCCC)n1CCOC(C)C` [Example 214], the SIF in series [1] (setting [8]) is reported as 2% remaining. The same molecule returned a Papp at 90 min, 10 µM in series [2] (setting [9]) of 1.63 ×10⁻⁶ cm/s. Also, the “human Plasma stability” value in the series “Plasma Stability” (setting [10]) is on record as 77% remaining. For the same molecule, the SGF in series [3] (setting [11]) is reported as 80% remaining.

As to `CCCCCCOC(=O)OCn1c(=O)c2c(ccn2COC(=O)OCCCCCC)n(CCOC(C)C)c1=S` [Example 215], the SIF in series [1] (setting [8]) is reported as 1% remaining. Also, the Papp at 90 min, 10 µM in series [2] (setting [9]) is 0.214 ×10⁻⁶ cm/s. For the same molecule, the “human Plasma stability” value in the series “Plasma Stability” (setting [10]) amounted to 88% remaining. In addition, the SGF in series [3] (setting [11]) is on record as 94% remaining.

`CCCCCOC(=O)OCn1ccc2c1c(=O)nc(S)n2CCOC(C)C` [Example 216]: the SIF in series [1] (setting [8]) is given as 1% remaining. The Papp at 90 min, 10 µM in series [2] (setting [9]) was determined as 4.59 ×10⁻⁶ cm/s. The “human Plasma stability” value in the series “Plasma Stability” (setting [10]) came to 1% remaining. The SGF in series [3] (setting [11]) is given as 91% remaining.

For the molecule `CCCCCOC(=O)OCSc1nc(=O)c2c(ccn2COC(=O)OCCCCC)n1CCOC(C)C` [Example 217], the SIF in series [1] (setting [8]) was 1% remaining. Besides, the Papp at 90 min, 10 µM in series [2] (setting [9]) came out at 5.32 ×10⁻⁶ cm/s. For the same molecule, the “human Plasma stability” value in the series “Plasma Stability” (setting [10]) came out at 5% remaining. Also, the SGF in series [3] (setting [11]) is 88% remaining.

In the case of `CCCCCOC(=O)OCn1c(=O)c2c(ccn2COC(=O)OCCCCC)n(CCOC(C)C)c1=S` [Example 218], the SIF in series [1] (setting [8]) is listed as 2% remaining. The apparent permeability coefficient (Papp) at 90 min, 10 µM in series [2] (setting [9]) was 0.65 ×10⁻⁶ cm/s. The “human Plasma stability” value in the series “Plasma Stability” (setting [10]) is on record as 74% remaining. Further, the SGF in series [3] (setting [11]) is 100% remaining.

Regarding `CCCCCCCOC(=O)OCn1ccc2c1c(=O)nc(S)n2CCOC(C)C` [Example 219], in series [1] (setting [8]), the SIF is listed as 23% remaining. For the same molecule, the Papp at 90 min, 10 µM in series [2] (setting [9]) came out at 0.847 ×10⁻⁶ cm/s. Also, in the series “Plasma Stability” (setting [10]), the “human Plasma stability” value worked out at 21% remaining. Further, the SGF in series [3] (setting [11]) is listed as 98% remaining.

`CC(=O)OCc1ccccc1N(C)C(=O)OC(C)n1ccc2c1c(=O)nc(S)n2CCOC(C)C` (stereo not shown) [Example 221]: in series [1] (setting [8]), the SIF is 68% remaining. Also, the Papp at 90 min, 10 µM in series [2] (setting [9]) was 2.54 ×10⁻⁶ cm/s. In addition, the “human Plasma stability” value in “Plasma Stability” (setting [10]) is recorded as 94% remaining. The SGF in series [3] (setting [11]) was 67% remaining.

Regarding `CC(=O)OCc1ccccc1N(C)C(=O)OCn1ccc2c1c(=O)nc(S)n2CCOC(C)C` [Example 222], the SIF in series [1] (setting [8]) is 88% remaining. Besides, the Papp at 90 min, 10 µM in series [2] (setting [9]) was 2.05 ×10⁻⁶ cm/s. In addition, in the series “Plasma Stability” (setting [10]), the “human Plasma stability” value is on record as 22% remaining. Besides, in series [3] (setting [11]), the SGF is 98% remaining.

As to `CC(C)NC(=O)n1ccc2c1c(=O)[nH]c(=S)n2CCOC(C)C` [Example 223], the SIF in series [1] (setting [8]) is 70% remaining. The same molecule had a Papp at 90 min, 10 µM in series [2] (setting [9]) of 37 ×10⁻⁶ cm/s. In the series “Plasma Stability” (setting [10]), the “human Plasma stability” value was determined as 99% remaining. The SGF in series [3] (setting [11]) is recorded as 87% remaining.

On to `CCCCNC(=O)n1ccc2c1c(=O)[nH]c(=S)n2CCOC(C)C` [Example 224], for which the SIF in series [1] (setting [8]) is 100% remaining. The same molecule came in with a Papp at 90 min, 10 µM in series [2] (setting [9]) of 12.6 ×10⁻⁶ cm/s. Further, the “human Plasma stability” value in “Plasma Stability” (setting [10]) was found to be 89% remaining. In addition, in series [3] (setting [11]), the SGF is 83% remaining.

With `CCCNC(=O)n1ccc2c1c(=O)[nH]c(=S)n2CCOC(C)C` [Example 225], the SIF in series [1] (setting [8]) is 78% remaining. Besides, the apparent permeability (Papp) at 90 min, 10 µM in series [2] (setting [9]) came to 24.3 ×10⁻⁶ cm/s. For the same molecule, the “human Plasma stability” value in the series “Plasma Stability” (setting [10]) turned out to be 99% remaining. Moreover, in series [3] (setting [11]), the SGF is reported as 98% remaining.

Consider `CCC(C)NC(=O)n1ccc2c1c(=O)[nH]c(=S)n2CCOC(C)C` (stereo not shown) [Example 226], for which, in series [1] (setting [8]), the SIF is reported as 83% remaining. The same molecule returned a Papp at 90 min, 10 µM in series [2] (setting [9]) of 35.1 ×10⁻⁶ cm/s. Also, the “human Plasma stability” value in the series “Plasma Stability” (setting [10]) is recorded as 97% remaining. Moreover, in series [3] (setting [11]), the SGF is given as 91% remaining.

Turning to `CC(C)OCCn1c(=S)[nH]c(=O)c2c1ccn2C(=O)Nc1ccccc1` [Example 227], the SIF in series [1] (setting [8]) was 95% remaining. For the same molecule, in series [2] (setting [9]), the Papp at 90 min, 10 µM came to 1.67 ×10⁻⁶ cm/s. Moreover, in the series “Plasma Stability” (setting [10]), the “human Plasma stability” value stood at 99% remaining. The SGF in series [3] (setting [11]) is listed as 100% remaining.

On to `CC(C)OCCn1c(=S)[nH]c(=O)c2c1ccn2C(=O)NCc1ccccc1` [Example 228], for which the SIF in series [1] (setting [8]) is given as 100% remaining. Moreover, in series [2] (setting [9]), the Papp at 90 min, 10 µM is 10.3 ×10⁻⁶ cm/s. Also, the “human Plasma stability” value in “Plasma Stability” (setting [10]) is recorded as 99% remaining. In addition, in series [3] (setting [11]), the SGF is 95% remaining.

For `CC(C)OCCn1c(=S)[nH]c(=O)c2c1ccn2C(=O)NC(C)(C)C` [Example 229, N-tert-butyl-4-oxo-1-[2-(propan-2-yloxy)ethyl]-2-sulfanylidene-1H,2H,3H,4H,5H-pyrrolo[3,2-d]pyrimidine-5-carboxamide], the SIF in series [1] (setting [4]) is recorded as 76%. In series [2] (setting [5]), this molecule displayed a Papp at 90 min, 10 µM of 26.4 ×10⁻⁶ cm/s. Besides, the “human Plasma stability” value in the series “Plasma Stability” (setting [6]) was 96%. In series [3] (setting [7]), the SGF is on record as 98%.

With `CCOC(=O)n1ccc2c1c(=O)[nH]c(=S)n2CCOC(C)C` [Example 230], the SIF in series [1] (setting [12]) is 33% remaining. Besides, the Papp at 90 min, 10 µM in series [2] (setting [13]) was found to be 0.456 ×10⁻⁶ cm/s. In addition, the “human Plasma stability” value in the series “Plasma Stability” (human plasma, at 1 h) is on record as 2% remaining. For the same molecule, the SGF in series [3] (setting [14]) is reported as 99% remaining.

For the molecule `CC(C)OCCn1c(=S)[nH]c(=O)c2c1ccn2C(=O)OC(C)C` [Example 231], in series [1] (setting [12]), the SIF is recorded as 40% remaining. In series [2] (setting [13]), this molecule yielded a Papp at 90 min, 10 µM of 3.63 ×10⁻⁶ cm/s. Moreover, in the series “Plasma Stability” (human plasma, at 1 h), the “human Plasma stability” value was found to be 0% remaining. In addition, in series [3] (setting [14]), the SGF is 100% remaining.

`CC(C)COC(=O)n1ccc2c1c(=O)[nH]c(=S)n2CCOC(C)C` [Example 232]: the SIF in series [1] (setting [12]) is given as 3% remaining. Further, the Papp at 90 min, 10 µM in series [2] (setting [13]) is 0.256 ×10⁻⁶ cm/s. Further, the “human Plasma stability” value in the series “Plasma Stability” (human plasma, at 1 h) turned out to be 2% remaining. In addition, in series [3] (setting [14]), the SGF is reported as 98% remaining.
